According to ChEMBL document CHEMBL1777811, “Actin depolymerizing effect of trisoxazole-containing macrolides” (2011):
Activity calls are given as the source filed them. No cut-off for these calls is given here.

How the values were obtained:
[1] = Induction of depolymerization of F-actin at 1.82 uM by fluorimetry relative to control
[2] = Induction of depolymerization of F-actin by fluorimetry
Bacillus subtilis = test: Antibacterial activity against Bacillus subtilis ATCC 6633 at 100 ug/ml after 24 hrs by twofold serial dilution method; format: functional, organism-based
Staphylococcus aureus [3] = test: Antibacterial activity against Staphylococcus aureus IFO 12708 at 100 ug/ml after 24 hrs by twofold serial dilution method; format: functional, organism-based
Trichophyton rubrum = test: Antifungal activity against Trichophyton rubrum IFO 9185 after 48 to72 hrs by twofold serial dilution method; format: functional
Aspergillus fumigatus = test: Antifungal activity against Aspergillus fumigatus HIC 6094 after 48 to72 hrs by twofold serial dilution method; format: functional
Escherichia coli = test: Antibacterial activity against Escherichia coli ATCC 25922 at 100 ug/ml after 24 hrs by twofold serial dilution method; format: functional, organism-based
Staphylococcus aureus [4] = test: Antibacterial activity against Staphylococcus aureus ATCC 6538p at 100 ug/ml after 24 hrs by twofold serial dilution method; format: functional, organism-based
[5] = system: Trichophyton mentagrophytes; test: Antifungal activity against Trichophyton mentagrophytes IFO 40996 after 48 to72 hrs by twofold serial dilution method; format: functional
Candida albicans = test: Antifungal activity against Candida albicans ATCC 10231 after 48 to72 hrs by twofold serial dilution method; format: functional
Proteus vulgaris = test: Antibacterial activity against Proteus vulgaris ATCC 3851 at 100 ug/ml after 24 hrs by twofold serial dilution method; format: functional, organism-based
Salmonella typhimurium = test: Antibacterial activity against Salmonella Typhimurium ATCC 14028 at 100 ug/ml after 24 hrs by twofold serial dilution method; format: functional, organism-based; conditions: Salmonella enterica subsp. enterica serovar Typhimurium
[6] = Induction of depolymerization of F-actin at 7.28 uM by fluorimetry relative to control
[7] = Induction of depolymerization of F-actin at 112 uM by fluorimetry relative to control
[8] = Induction of depolymerization of F-actin at 14 to 114 uM by fluorimetry relative to control
[9] = Induction of depolymerization of F-actin at 15 to 120 uM by fluorimetry relative to control

Row | Activity [9] | SMILES | Activity [1] [%] | Activity [2] | Activity (Bacillus subtilis) | Activity (Staphylococcus aureus [3]) | MIC (Trichophyton rubrum) | MIC (Aspergillus fumigatus) | Activity (Escherichia coli) | Activity (Staphylococcus aureus [4]) | MIC [5] | MIC (Candida albicans) | Activity (Proteus vulgaris) | Activity (Salmonella typhimurium) | Activity [6] [%] | Activity [7] [%] | Activity [8]
1 | – | COC(CC1OC(=O)CC(O)C/C=C\C(=O)C(C)C(OC)c2coc(n2)-c2coc(n2)-c2coc(n2)/C=C\CCC1C)C(C)CCC(=O)C(C)C(C/C=C/N(C)C=O)OC (stereo unspecified) | > 90 | Dose-dependent effect | inactive | inactive | 7.27 µM | 14.6 µM | inactive | inactive | 14.6 µM | 0.91 µM | inactive | inactive | – | – | –
2 | – | C[C@@H]1[C@H](O)[C@@H](C)/C=C/C=C/C=C/C=C/C=C/C=C/C=C/[C@H](O[C@@H]2O[C@H](C)[C@@H](O)[C@H](N)[C@@H]2O)C[C@@H]2O[C@](O)(C[C@@H](O)C[C@@H](O)[C@H](O)CC[C@@H](O)C[C@@H](O)CC(=O)O[C@H]1C)C[C@H](O)[C@H]2C(=O)O [AMPHOTERICIN B] | – | – | – | – | 0.84 µM | 0.84 µM | – | – | 0.84 µM | 0.22 µM | – | – | – | – | –
3 | – | COC(CC1OC(=O)CC(O)C/C=C/C(=O)C(C)C(OC)c2coc(n2)-c2coc(n2)-c2coc(n2)/C=C/CCC1C)C(C)CCC(=O)C(C)C(C/C=C/N(C)C=O)OC (stereo unspecified) [HALICHONDRAMIDE] | – | Dose-dependent effect | inactive | inactive | 0.48 µM | 0.45 µM | inactive | inactive | 0.91 µM | 0.23 µM | inactive | inactive | > 90 | – | –
4 | – | COC(=O)c1coc(/C=C/CCC(C)C(CC(OC)C(C)CCC(=O)C(C)C(C/C=C/N(C)C=O)OC)OC(=O)CC(O)C/C=C/C(=O)C(C)C(OC)c2coc(C(N)=O)n2)n1 (stereo unspecified) [HALISHIGAMIDE D] | – | – | inactive | inactive | > 100 µg/mL | > 100 µg/mL | inactive | inactive | > 100 µg/mL | > 100 µg/mL | inactive | inactive | – | 40 | –
5 | – | COC(CC1OC(=O)CC(O)CC(O)CC(=O)C(C)C(OC)c2coc(n2)-c2coc(n2)-c2coc(n2)/C=C/CCC1C)C(C)CCC(=O)C(C)C(C/C=C/N(C)C=O)OC (stereo unspecified) [JASPISAMIDE A] | – | – | inactive | inactive | > 100 µg/mL | > 100 µg/mL | inactive | inactive | > 100 µg/mL | > 100 µg/mL | inactive | inactive | – | – | inactive
6 | inactive | COC(CC1OC(=O)CC(O)/C=C/CC(=O)C(C)C(OC)c2coc(n2)-c2coc(n2)-c2coc(n2)/C=C/CCC1C)C(C)CCC(=O)C(C)C(C/C=C/N(C)C=O)OC (stereo unspecified) [NEOHALICHONDRAMIDE] | – | – | inactive | inactive | > 100 µg/mL | > 100 µg/mL | inactive | inactive | > 100 µg/mL | > 100 µg/mL | inactive | inactive | – | – | –
